According to patent US20130123271A1, “HETEROCYCLIC COMPOUNDS, THEIR PREPARATION AND THERAPEUTIC APPLICATION” (FOVEA PHARMACEUTICALS, priority 2010, published 2013):

Biological target: h Src (Homo sapiens, UniProt P12931)
Experiment: LC3000 Src assay (off-chip incubation mobility-shift kinase assay, Caliper LabChip)
Format: biochemical
Conditions: ATP at KM apparent
Description: The screening and profiling experiments described here were performed using Caliper Life Sciences' proprietary LabChip™ technology. Caliper LC3000 and EZ Reader II instruments are widely used throughout the drug discovery process for assay development, primary screening, selectivity screening, generation of Structure-Activity Relationships (SARs) and Mechanism of Action (MOA) studies. The LabChip™ technology is particularly well suited for enzymatic ‘targets’ such as kinases, proteases, phosphatases, histone deacetylases (HDAC), phosphodiesterases (PDE), and acyl-transferases. The key benefit of the technology is the separation and direct measurement of substrates and products, which allows for higher signal-to-noise ratios and fewer false positive/negative results. This direct measurement also allows for the identification and elimination of enzymatic activities that are not associated with the kinase reaction of interest.
The off-chip incubation mobility-shift kinase assay uses a microfluidic chip to measure the conversion of a fluorescent peptide substrate to a phosphorylated product. The reaction mixture, from a microtiter plate well, is introduced through a capillary sipper onto the chip, where the nonphosphorylated substrate and phosphorylated product are separated by electrophoresis and detected via laser-induced fluorescence. […] The phosphorylated product migrates through the chip faster than the non-phosphorylated substrate, and signals from the two forms of the peptide appear as distinct peaks. Caliper's data analysis software (HTSWA) determines peak heights, from which the ratio of product to the peak sum P/(P+S) and percent (%) conversion is calculated. This value is used to compare compound wells to control wells present on the plate, and thereby determine the % inhibition values for the compound. The formula used to calculate % inhibition is as follows, where C100% is the average % conversion of the 100% activity wells and C0% is the average % conversion of the 0% activity wells:
(1-(%conversionofsample—C0%)/(C100%−C0%))*100
Compounds were dissolved in 100% DMSO and diluted to 25× the final desired screening concentration. Serial dilutions were performed to obtain the concentrations specified for particular studies. One μl of each concentration was transferred, in duplicate, to a 384-well Greiner microtiter plate. Generally, 12 μL of enzyme buffer containing purified kinase (various suppliers), 100 mM HEPES, pH 7.5, 1 mM DTT (Calbiochem, 2333153), 10 mM MgCl2 (Sigma, M-1028) or 10 mM MnCl2 (Sigma, M-1787) (assay specific), and 0.002% Brij-35 (Sigma, B4184) was added to each well. Compound and enzyme were allowed to pre-incubate for 15 minutes. 12 μL of peptide/ATP buffer containing 100 mM HEPES, pH 7.5, 1.5 μM fluorescein-labeled peptide (specific to kinase of interest), ATP (at KM apparent, Sigma, A9187), and 0.002% Brij-35 was then added to each well to initiate the reaction. Generally, reactions were incubated for 1-1.5 hours at room temperature to obtain adequate (15-40%) conversion of peptide to phosphorylated product in the linear range of the reaction. Reactions were terminated with the addition of 45 μL of Stop Buffer (containing 20 mM EDTA). Plates were then read on the LabChip 3000 using a 12-sipper LabChip. % conversion values and % inhibition values were obtained as described and IC50 curves of compounds were generated using Graphpad Prism Version 4 or 5.01. A nonlinear curve fit using the sigmoidal dose response—variable slope fit was used to graph IC50 curves and determine IC50 values and hillslopes.

h Src, sequence (P12931 whole entry): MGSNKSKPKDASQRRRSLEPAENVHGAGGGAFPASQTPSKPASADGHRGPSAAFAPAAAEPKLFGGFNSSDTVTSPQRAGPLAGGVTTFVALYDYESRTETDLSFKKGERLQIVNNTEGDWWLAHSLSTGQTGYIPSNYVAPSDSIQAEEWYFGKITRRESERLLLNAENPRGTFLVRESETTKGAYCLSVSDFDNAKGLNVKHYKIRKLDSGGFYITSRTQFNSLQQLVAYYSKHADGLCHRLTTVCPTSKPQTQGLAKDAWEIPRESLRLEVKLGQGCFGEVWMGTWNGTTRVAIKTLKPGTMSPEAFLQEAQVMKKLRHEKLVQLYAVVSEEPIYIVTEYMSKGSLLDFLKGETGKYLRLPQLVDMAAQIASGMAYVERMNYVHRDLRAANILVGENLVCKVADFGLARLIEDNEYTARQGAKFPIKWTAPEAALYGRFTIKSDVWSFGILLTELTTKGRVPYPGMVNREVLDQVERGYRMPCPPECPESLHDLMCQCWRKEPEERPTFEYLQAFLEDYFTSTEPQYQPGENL

SMILES | IC50
OCc1ccc(Nc2nc3ccc(-c4cc(O)ccc4Cl)cn3n2)cc1CO [Compound 35, 3-[2-(3,4-Bis-hydroxymethyl-phenylamino)-[1,2,4]triazolo[1,5-a]pyridin-6-yI]-4-chloro-phenol] | 34 nM
Oc1ccc(Cl)c(-c2ccc3nc(Nc4cncc(OCCN5CCCC5)c4)nn3c2)c1 [Compound 26, 4-Chloro-3-{2-[5-(2-pyrrolidin-1-yl-ethoxy)-pyridin-3-ylamino]-[1,2,4]triazolo[1,5-a]pyridin-6-yl}-phenol] | 14 nM
COc1cc(Nc2nc3ccc(-c4cc(O)ccc4Cl)cn3n2)ccn1 [Compound 20, 4-Chloro-3-[2-(2-methoxy-pyridin-4-ylamino)-[1,2,4]triazolo[1,5-a]pyridin-6-yl]-phenol] | 6 nM
COc1ccc(Nc2ncc3cc(-c4cc(O)ccc4Cl)ccc3n2)cn1 [Compound 40, 4-Chloro-3-[2-(6-methoxy-pyridin-3-ylamino)-quinazolin-6-yl]-phenol] | 10 nM
OCCn1cnc2ccc(Nc3nc4ccc(-c5cc(O)ccc5Cl)cn4n3)cc21 [Compound 30, 4-Chloro-3-{2-[3-(2-hydroxy-ethyl)-3H-benzoimidazol-5-ylamino]-[1,2,4]triazolo[1,5-a]pyridin-6-yl}-phenol] | 7 nM
OCCN1CCN(c2cc(Nc3nc4ccc(-c5cc(O)ccc5Cl)cn4n3)ccn2)CC1 [Compound 38, 4-Chloro-3-(2-{2-[4-(2-hydroxy-ethyl)-piperazin-1-yl]-pyridin-4-ylamino}-[1,2,4]triazolo[1,5-a]pyridin-6-yl)-phenol] | 13 nM
OCc1cc(CO)cc(Nc2nc3cc(-c4cc(O)ccc4Cl)ccn3n2)c1 [Compound 34, 3-[2-(3,5-Bis-hydroxymethyl-phenylamino)-[1,2,4]triazolo[1,5-a]pyridin-7-yl]-4-chloro-phenol] | 9 nM
Oc1ccc(Cl)c(-c2ccc3nc(Nc4ccc(OCCN5CCCC5)cn4)nn3c2)c1 [compound 8, 4-Chloro-3-{2-[5-(2-pyrrolidin-1-yl-ethoxy)-pyridin-2-ylamino]-[1,2,4]triazolo[1,5-a]pyridin-6-yl}-phenol] | 100 nM
[O-][N+]1(CCOc2ccc(Nc3nc4ccc(-c5cc(O)ccc5Cl)cn4n3)cc2)CCCC1 [Compound 41, 4-Chloro-3-(2-{4-[2-(1-oxy-pyrrolidin-1-yl)-ethoxy]-phenylamino}-[1,2,4]triazolo[1,5-a]pyridin-6-yl)-phenol] | 55 nM
Oc1ccc(Cl)c(-c2ccn3nc(Nc4cccnc4)nc3c2)c1 [Compound 31, 4-Chloro-3-[2-(pyridin-3-ylamino)-[1,2,4]triazolo[1,5-a]pyridin-7-yl]-phenol] | 69 nM
Oc1ccc(Cl)c(-c2ccc3nc(Nc4ccnc(OCCN5CCCC5)c4)nn3c2)c1 [Compound 33, 4-Chloro-3-{2-[2-(2-pyrrolidin-1-yl-ethoxy)-pyridin-4-ylamino]-[1,2,4]triazolo[1,5-a]pyridin-6-yl}-phenol] | 29 nM
COc1ccc(Nc2nc3ccc(-c4cc(O)ccc4Cl)cn3n2)cn1 [compound 7, 4-Chloro-3-[2-(6-methoxy-pyridin-3-ylamino)-[1,2,4]triazolo[1,5-a]pyridin-6-yl]-phenol] | 80 nM
Oc1ccc(Cl)c(-c2ccc3nc(Nc4cncnc4)nn3c2)c1 [compound 3, 4-Chloro-3-[2-(pyrimidin-5-ylamino)-[1,2,4]triazolo[1,5-a]pyridin-6-yl]-phenol] | 150 nM
Oc1ccc(Cl)c(-c2ccc3nc(Nc4cccnc4)ncc3c2)c1 [Compound 17, 4-Chloro-3-[2-(pyridin-3-ylamino)-quinazolin-6-yl]-phenol] | 2 nM
OCCN1CCN(c2cc(CO)cc(Nc3nc4ccc(-c5cc(O)ccc5Cl)cn4n3)c2)CC1 [Compound 47, 4-Chloro-3-(2-{3-[4-(2-hydroxy-ethyl)-piperazin-1-yl]-5-hydroxymethyl-phenylamino}-[1,2,4]triazolo[1,5-a]pyridin-6-yl)-phenol] | 1 nM
COc1cc(Nc2nc3ccc(-c4cc(O)ccc4Cl)cn3n2)cc(OC)c1OC [Compound 29, 4-Chloro-3-[2-(3,4,5-trimethoxy-phenylamino)-[1,2,4]triazolo[1,5-a]pyridin-6-yl]-phenol] | 2 nM
Oc1ccc(Cl)c(-c2ccc3nc(Nc4ccnc(O)c4)nn3c2)c1 [Compound 19, 4-[6-(2-Chloro-5-hydroxy-phenyl)-[1,2,4]triazolo[1,5-a]pyridin-2-ylamino]-pyridin-2-ol] | 28 nM
OCc1cncc(Nc2ncc3cc(-c4cc(O)ccc4Cl)ccc3n2)c1 [Compound 21, 4-Chloro-3-[2-(5-hydroxymethyl-pyridin-3-ylamino)-quinazolin-6-yl]-phenol] | 0.4 nM
OCc1ccc(Nc2nc3ccc(-c4cc(O)ccc4Cl)cn3n2)cn1 [compound 14, 4-Chloro-3-[2-(6-hydroxymethyl-pyridin-3-ylamino)-[1,2,4]triazolo[1,5-a]pyridin-6-yl]-phenol] | 47 nM
COc1cc(Nc2ncc3cc(-c4cc(O)ccc4Cl)ccc3n2)cc(OC)c1OC [Compound 36, 4-Chloro-3-[2-(3,4,5-trimethoxy-phenylamino)-quinazolin-6-y]-phenol] | 0.5 nM
Cc1cc(Nc2ncc3cc(-c4cc(OC(=O)c5ccccc5)ccc4Cl)ccc3n2)cc(N2CCN(CCO)CC2)c1 [Compound 49, Benzoic acid 4-chloro-3-(2-{3-[4-(2-hydroxy-ethyl)-piperazin-1-yl]-5-methyl-phenylamino}-quinazolin-6-yl)-phenyl ester] | 11 nM
Oc1ccc(Cl)c(-c2ccc3nc(Nc4ccc5cc[nH]c5c4)nn3c2)c1 [Compound 18, 4-Chloro-3-[2-(1H-indol-6-ylamino)-[1,2,4]triazolo[1,5-a]pyridin-6-yl]-phenol] | 39 nM
Oc1ccc(Cl)c(-c2ccc3nc(Nc4ccncc4)nn3c2)c1 [compound 1, 4-Chloro-3-[2-(pyridin-4-ylamino)-[1,2,4]triazolo[1,5-a]pyridin-6-yl]-phenol] | 73 nM
Oc1ccc(Cl)c(-c2ccc3nc(Nc4ccccn4)nn3c2)c1 [compound 12, 4-Chloro-3-[2-(pyridin-2-ylamino)-[1,2,4]triazolo[1,5-a]pyridin-6-yl]-phenol] | 170 nM
OCc1cncc(Nc2nc3ccc(-c4cc(O)ccc4Cl)cn3n2)c1 [compound 4, 4-Chloro-3-[2-(5-hydroxymethyl-pyridin-3-ylamino)-[1,2,4]triazolo[1,5-a]pyridin-6-yl]-phenol] | 39 nM
Oc1ccc(Cl)c(-c2ccc3nc(Nc4ccc5cc[nH]c5c4)ncc3c2)c1 [Compound 42, 4-Chloro-3-[2-(1 H-indol-6-ylamino)-quinazolin-6-yl]-phenol] | 100 nM
O=C1CCCN1CCOc1ccc(Nc2nc3ccc(-c4cc(O)ccc4Cl)cn3n2)cn1 [Compound 44, 1-(2-{5-[6-(2-Chloro-5-hydroxy-phenyl)-[1,2,4]triazolo[1,5-a]pyridin-2-ylamino]-pyridin-2-yloxy}-ethyl)-pyrrolidin-2-one] | 57 nM
OCCN1CCN(c2cc(CO)cc(Nc3ncc4cc(-c5cc(O)ccc5Cl)ccc4n3)c2)CC1 [Compound 50, 4-Chloro-3-(2-{3-[4-(2-hydroxy-ethyl)-piperazin-1-yl]-5-hydroxymethyl-phenylamino}-quinazolin-6-yl)-phenol] | 0.2 nM
Oc1ccc(Cl)c(-c2ccc3nc(Nc4cccnc4)nn3c2)c1 [compound 2, 4-Chloro-3-[2-(pyridin-3-ylamino)-[1,2,4]triazolo[1,5-a]pyridin-6-yl]-phenol] | 120 nM
